Experiments:
[1] = Add-on rates of quaternary ammonium salts on dyed and undyed nylon fabrics and weight loss after Launder-Ometer washing; assay type: physicochemical; conditions: 6% quaternary salt solution, pH = 3.7, cured 120° C. 30 minutes
[2] = as above; assay type: physicochemical; conditions: for Add-on rate after 7 washes (%): Launder-Ometer, AATCC test method 61; for Total weight loss after the + 7 washes (%): after finishing and 7 Launder-Ometer washes
Experimental: Nylon fabrics were dyed with 1% on weight fabric (o.w.f.) dye solutions at 95° C. for 90 min. The liquor ratio was 1:50, and the pH of the dye bath was adjusted to pH=3.5 with acetic acid. The dyed fabrics were washed with the AATCC standard detergent after dyeing and then cured at 120° C. for 15 minutes.
The antibacterial finishing baths were prepared by dissolving quaternary ammonium salts in distilled water. The pH value was adjusted to pH=4 with acetic acid. The dyed nylon fabric was dipped in the antibacterial agent solution, padded to a wet pick up of about 60% and cured at an elevated temperature for an extended period.
The finished fabric was washed in a Launder-Ometer, according to AATCC Test Method 61-1994 to evaluate the washing durability. One cycle of Launder-Ometer washing test by this AATCC Test Method is equivalent to about five machine washes in a home laundry practice.
The nylon fabrics were first dyed with two different acid dyes at concentration of 1% on weight fabric (o.w.f) and then treated with the quaternary ammonium salts.
The weight loss of a fabric sample is calculated based on its total weight change after the finishing and washing.

[3] = nylon fabric dyed with Acid Blue 113 1% owf
[4] = nylon fabric dyed with Acid Red 88 1% owf

CCCCCCCCCCCC[N+](C)(C)C.[Br-] [DTAB, Dodecyltrimethyl ammonium bromide]
Add-on rate (%) ([1]; Undyed nylon fabric): 2.51% | Add-on rate (%) [1, 3]: 3.86% | Add-on rate (%) [1, 4]: 3.35% | Add-on rate after 7 washes (%) ([2]; Undyed nylon fabric): −3.51% | Total weight loss after the + 7 washes (%) ([2]; Undyed nylon fabric): −1.00% | Add-on rate after 7 washes (%) [2, 3]: −3.48% | Total weight loss after the + 7 washes (%) [2, 3]: 0.28% | Add-on rate after 7 washes (%) [2, 4]: −3.39% | Total weight loss after the + 7 washes (%) [2, 4]: −0.04%

CCCCCCCCCCCC[N+](C)(C)CC(O)C[N+](C)(C)CCCCCCCCCCCC.[Cl-].[Cl-] [Dimer, 1,3-Bis-(N,N-dimethyldodecylammonium chloride)-2-propanol]
Add-on rate (%) ([1]; Undyed nylon fabric): 2.73% | Add-on rate (%) [1, 3]: 2.29% | Add-on rate (%) [1, 4]: 2.99% | Add-on rate after 7 washes (%) ([2]; Undyed nylon fabric): −3.20% | Total weight loss after the + 7 washes (%) ([2]; Undyed nylon fabric): −0.47% | Add-on rate after 7 washes (%) [2, 3]: −2.54% | Total weight loss after the + 7 washes (%) [2, 3]: −0.25% | Add-on rate after 7 washes (%) [2, 4]: −3.08% | Total weight loss after the + 7 washes (%) [2, 4]: −0.09%

CCCCCCCCCCCC[N+](C)(C)CC(O)CCl.[Cl-] (stereo not drawn) [Monomer, N-(3-chloro-2-hydroxypropyl)-N,N-dimethyldodecylammonium chloride]
Add-on rate (%) ([1]; Undyed nylon fabric): 1.08% | Add-on rate (%) [1, 3]: 2.01% | Add-on rate (%) [1, 4]: 1.78% | Add-on rate after 7 washes (%) ([2]; Undyed nylon fabric): −1.81% | Total weight loss after the + 7 washes (%) ([2]; Undyed nylon fabric): −0.73% | Add-on rate after 7 washes (%) [2, 3]: −2.44% | Total weight loss after the + 7 washes (%) [2, 3]: −0.43% | Add-on rate after 7 washes (%) [2, 4]: −1.87% | Total weight loss after the + 7 washes (%) [2, 4]: −0.09%
